The term melting point denotes the temperature, or range, at which the solid turns liquid. The compound `C=C(C)C(CN1C(=O)c2cccc3c2c(cc2c4ccccc4sc32)C1=O)OO` (centres unmarked) [compound 19] had a melting point of 174 to 175 °C. `C=C(C)C(O)CN1C(=O)c2cccc3c2c(cc2c4ccccc4sc32)C1=O` (centres unmarked) [compound 20]: the melting point is 95 to 97 °C.

As to `CC(C)=CCN1C(=O)c2cccc3c2c(cc2c4ccccc4sc32)C1=O` [compound 21], the melting point is 207 to 208 °C. Compound `C=C(C)C(CCn1c(=O)c2ccc3sc4ccccc4c4ccc(c1=O)c2c34)OO` (centres unmarked) [compound 22] gave a melting point of 210 to 211 °C. `CC(C)=CCCn1c(=O)c2ccc3sc4ccccc4c4ccc(c1=O)c2c34` [compound 23]: the melting point was in the range of 202 to 203 °C. Compound `O=C(ON1C(=O)c2cccc3cccc(c23)C1=S)c1ccccc1` [compound 24] yielded a melting point of 189 to 190 °C. For `O=C(ON1C(=O)c2cccc3cccc(c23)C1=S)c1ccc(Cl)cc1` [compound 26], the melting point lay in the range of 182 to 183 °C. As for `O=C(ON1C(=O)c2cccc3cccc(c23)C1=S)c1ccc(Cl)cc1F` [compound 30], the melting point lay within 208 to 210 °C. `Cc1cc(C)cc(C(=O)ON2C(=O)c3cccc4cccc(c34)C2=S)c1` [compound 31] came in with a melting point of 216 to 218 °C. The compound `COc1ccc(C(=O)ON2C(=O)c3cccc4cccc(c34)C2=S)cc1OC` [compound 32] gave a melting point of 221 to 223 °C.

The compound `O=C(ON1C(=O)c2cccc3cccc(c23)C1=S)c1ccco1` [compound 34] returned a melting point of 209 to 211 °C.
